In the supplement of paper PMC10307832:

Tests used:
Test in all cases: relative viability (nuclei count vs DMSO), 5 days (fraction); higher = more cells survive
LU99A = test system: LU99A
Summary of the method: (§1)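 After 5 days of treatment, lung cancer cells in 1536-well plates were fixed and stained in a single step (final 0.05% Triton X-100, 1% formaldehyde, 1 ug/ml Hoechst) and their nuclei counted on 4× images. Treatment had been applied by pin tool the day after seeding as one drug alone or as a fixed anchor-drug dose with five library-drug doses (not always all listed) in √10 steps. Relative viability is the nuclei count of treated wells divided by that of vehicle wells, and values are medians of duplicate plates.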

NCI-H650 = test system: NCI-H650
Summary of the method: as §1

LCLC-97TM1 = test system: LCLC-97TM1
Summary of the method: as §1

HCC-15 = test system: HCC-15
Summary of the method: as §1

NCI-H2009 = test system: NCI-H2009
Summary of the method: as §1

NCI-H2126 = test system: NCI-H2126
Summary of the method: as §1

NCI-H2228 = test system: NCI-H2228
Summary of the method: as §1

BEN = test system: BEN
Summary of the method: as §1

NCI-H460 = test system: NCI-H460
Summary of the method: as §1

NCI-H322M = test system: NCI-H322M
Summary of the method: as §1

EPLC-272H = test system: EPLC-272H
Summary of the method: as §1

NCI-H647 = test system: NCI-H647
Summary of the method: as §1

HCC-78 = test system: HCC-78
Summary of the method: as §1

NCI-H23 = test system: NCI-H23
Summary of the method: as §1

201T = test system: 201T
Summary of the method: as §1

NCI-H838 = test system: NCI-H838
Summary of the method: as §1

PC-14 = test system: PC-14
Summary of the method: as §1

NCI-H2085 = test system: NCI-H2085
Summary of the method: as §1

NCI-H1355 = test system: NCI-H1355
Summary of the method: as §1

NCI-H661 = test system: NCI-H661
Summary of the method: as §1

NCI-H2405 = test system: NCI-H2405
Summary of the method: as §1

Cc1csc(=NC2CCCCC2)n1/N=C/c1ccc(O)c(O)c1O [MIM1] + C[C@@H](Oc1cc(-c2cnn(C3CCNCC3)c2)cnc1N)c1c(Cl)ccc(F)c1Cl [Crizotinib] (partner 1 µM) showed a relative viability (LU99A; first compound 0.2 µM) of 0.56, a relative viability (LU99A; first compound 0.6325 µM) of 0.538 and a relative viability (LU99A; first compound 2 µM) of 0.474. The relative viability (LU99A; first compound 6.325 µM) was 0.481, the relative viability (LU99A; first compound 20 µM) was 0.29 and the relative viability (NCI-H650; first compound 0.2 µM) was 0.649. The relative viability (NCI-H650; first compound 0.6325 µM) was 0.709, the relative viability (NCI-H650; first compound 2 µM) was 0.662 and the relative viability (NCI-H650; first compound 6.325 µM) was 0.619. The relative viability (NCI-H650; first compound 20 µM) was 0.279, the relative viability (LCLC-97TM1; first compound 0.2 µM) was 0.327 and the relative viability (LCLC-97TM1; first compound 0.6325 µM) was 0.38. For the same compound, the relative viability (LCLC-97TM1; first compound 2 µM) was 0.441, the relative viability (LCLC-97TM1; first compound 6.325 µM) was 0.214 and the relative viability (LCLC-97TM1; first compound 20 µM) was 0.12. It also gave a relative viability (HCC-15; first compound 0.2 µM) of 0.801, a relative viability (HCC-15; first compound 0.6325 µM) of 0.808 and a relative viability (HCC-15; first compound 2 µM) of 0.86. For the same compound, the relative viability (HCC-15; first compound 6.325 µM) was 0.406, the relative viability (HCC-15; first compound 20 µM) was 0.12 and the relative viability (NCI-H2009; first compound 0.2 µM) was 0.964. For the same compound, the relative viability (NCI-H2009; first compound 0.6325 µM) was 1.1, the relative viability (NCI-H2009; first compound 2 µM) was 1.1 and the relative viability (NCI-H2009; first compound 6.325 µM) was 1.02. For the same compound, the relative viability (NCI-H2009; first compound 20 µM) was 0.732, the relative viability (NCI-H2126; first compound 0.2 µM) was 1.05 and the relative viability (NCI-H2126; first compound 0.6325 µM) was 1.05. For the same compound, the relative viability (NCI-H2126; first compound 2 µM) was 1.03, the relative viability (NCI-H2126; first compound 6.325 µM) was 0.963 and the relative viability (NCI-H2126; first compound 20 µM) was 0.659. For the same compound, the relative viability (NCI-H2228; first compound 0.2 µM) was 0.453, the relative viability (NCI-H2228; first compound 0.6325 µM) was 0.488 and the relative viability (NCI-H2228; first compound 2 µM) was 0.61. The relative viability (NCI-H2228; first compound 6.325 µM) was 0.241, the relative viability (NCI-H2228; first compound 20 µM) was 0.22 and the relative viability (BEN; first compound 0.2 µM) was 0.893. The relative viability (BEN; first compound 0.6325 µM) was 0.72, the relative viability (BEN; first compound 2 µM) was 0.982 and the relative viability (BEN; first compound 6.325 µM) was 0.801. For the same compound, the relative viability (BEN; first compound 20 µM) was 0.317, the relative viability (NCI-H460; first compound 0.2 µM) was 0.853 and the relative viability (NCI-H460; first compound 0.6325 µM) was 0.994. The relative viability (NCI-H460; first compound 2 µM) was 0.374, the relative viability (NCI-H460; first compound 6.325 µM) was 0.205 and the relative viability (NCI-H460; first compound 20 µM) was 0.031. For the same compound, the relative viability (NCI-H322M; first compound 0.2 µM) was 0.831, the relative viability (NCI-H322M; first compound 0.6325 µM) was 1.02 and the relative viability (NCI-H322M; first compound 2 µM) was 0.762. It also gave a relative viability (NCI-H322M; first compound 6.325 µM) of 0.808, a relative viability (NCI-H322M; first compound 20 µM) of 0.71 and a relative viability (EPLC-272H; first compound 0.2 µM) of 0.911. It also gave a relative viability (EPLC-272H; first compound 0.6325 µM) of 0.925, a relative viability (EPLC-272H; first compound 2 µM) of 0.901 and a relative viability (EPLC-272H; first compound 6.325 µM) of 0.666. For the same compound, the relative viability (EPLC-272H; first compound 20 µM) was 0.278, the relative viability (NCI-H647; first compound 0.2 µM) was 1.05 and the relative viability (NCI-H647; first compound 0.6325 µM) was 1.17. For the same compound, the relative viability (NCI-H647; first compound 2 µM) was 1.02, the relative viability (NCI-H647; first compound 6.325 µM) was 0.719 and the relative viability (NCI-H647; first compound 20 µM) was 0.354. For the same compound, the relative viability (HCC-78; first compound 0.2 µM) was 0.322, the relative viability (HCC-78; first compound 0.6325 µM) was 0.324 and the relative viability (HCC-78; first compound 2 µM) was 0.309. It also gave a relative viability (HCC-78; first compound 6.325 µM) of 0.318, a relative viability (HCC-78; first compound 20 µM) of 0.735 and a relative viability (NCI-H23; first compound 0.2 µM) of 0.554. The relative viability (NCI-H23; first compound 2 µM) was 0.334, the relative viability (NCI-H23; first compound 6.325 µM) was 0.487 and the relative viability (NCI-H23; first compound 20 µM) was 0.259. For the same compound, the relative viability (201T; first compound 0.2 µM) was 1.01, the relative viability (201T; first compound 0.6325 µM) was 1.04 and the relative viability (201T; first compound 2 µM) was 1.04. The relative viability (201T; first compound 6.325 µM) was 0.81, the relative viability (201T; first compound 20 µM) was 0.823 and the relative viability (NCI-H838; first compound 0.2 µM) was 0.818. For the same compound, the relative viability (NCI-H838; first compound 0.6325 µM) was 0.988, the relative viability (NCI-H838; first compound 2 µM) was 0.554 and the relative viability (NCI-H838; first compound 6.325 µM) was 0.688. For the same compound, the relative viability (NCI-H838; first compound 20 µM) was 0.699, the relative viability (PC-14; first compound 0.2 µM) was 0.854 and the relative viability (PC-14; first compound 0.6325 µM) was 0.839. The relative viability (PC-14; first compound 2 µM) was 0.873, the relative viability (PC-14; first compound 6.325 µM) was 0.728 and the relative viability (PC-14; first compound 20 µM) was 0.254. It also gave a relative viability (NCI-H2085; first compound 0.2 µM) of 0.851, a relative viability (NCI-H2085; first compound 0.6325 µM) of 0.85 and a relative viability (NCI-H2085; first compound 2 µM) of 0.761. The relative viability (NCI-H2085; first compound 6.325 µM) was 0.825, the relative viability (NCI-H2085; first compound 20 µM) was 0.847 and the relative viability (NCI-H1355; first compound 0.2 µM) was 1.04. It also gave a relative viability (NCI-H1355; first compound 0.6325 µM) of 1.16, a relative viability (NCI-H1355; first compound 2 µM) of 1 and a relative viability (NCI-H1355; first compound 6.325 µM) of 0.94. It also gave a relative viability (NCI-H1355; first compound 20 µM) of 0.516, a relative viability (NCI-H661; first compound 0.2 µM) of 0.973 and a relative viability (NCI-H661; first compound 0.6325 µM) of 0.953. It also gave a relative viability (NCI-H661; first compound 2 µM) of 0.875, a relative viability (NCI-H661; first compound 6.325 µM) of 0.677 and a relative viability (NCI-H661; first compound 20 µM) of 0.531. It also gave a relative viability (NCI-H2405; first compound 0.2 µM) of 0.883, a relative viability (NCI-H2405; first compound 0.6325 µM) of 0.864 and a relative viability (NCI-H2405; first compound 2 µM) of 0.912. It also gave a relative viability (NCI-H2405; first compound 6.325 µM) of 0.701 and a relative viability (NCI-H2405; first compound 20 µM) of 0.508.
